The values that follow come from US8580815B2, “Derivatives of azaindoles as inhibitors of protein kinases ABL and SRC” (Oribase Pharma, priority 2009, dated 2013).

For experiment [1], the system named is K562 cells expressing kinase Bcr-AbI. Particulars: known activity; BCR-Abl+ cells, patient with CML; cited from earlier work.
Experiment [2] concerns the target Abl kinase (h) (Homo sapiens (Human), UniProt P00519). In words: Cerep kinase profiling, HTRF assay, Abl kinase. It counts as biochemical. As for the experimental part: (§1) The inhibitory activity of the compounds of the chemical series on different protein kinases was evaluated by Cerep (Cerep Kinase Profiling Service; www.cerep.com). The kinases used in the tests in vitro are human recombinant proteins expressed in human cells, insect cells or in bacteria. […] The activity of the kinase was then detected by an HTRF assay. The HTRF assay (CisBio International) is based on fluorescence transfer, using Europium (Eu3+) cryptate and XL665 respectively as donor and acceptor. When the biotinylated or tagged substrate is phosphorylated by the kinase, it reacts with a cryptate-labelled phosphospecific antibody. Addition of Streptavidin-XL665, SA-XL665, (or anti-tag antibody XL665) leads to juxtaposition of the cryptate and of the fluorophore XL665, which is reflected in fluorescence resonance energy transfer (FRET). The intensity of FRET depends on the quantity of cryptate-labelled antibody bound to the substrate, which is proportional to the quantity of phosphorylated substrate (Mathis, G. Probing molecular interactions with homogeneous techniques based on rare earth cryptates and fluorescence energy transfer.

Experiment [3] addresses c-kit kinase (h) (Homo sapiens (Human), UniProt P10721). Briefly: Cerep kinase profiling, HTRF assay, c-kit kinase. Particulars: compound incubated at 10 μM; read-out: Percentage inhibition of kinase c-kit. It counts as biochemical. The method, then: as §1, with “bacteria. [table]” for “bacteria.”, “transfer. Clin Chem 41, 1391-7 (1995)).” for “transfer.”
For orientation: Time-resolved FRET reads energy transfer from a long-lived donor to a nearby acceptor.

Experiment [4] deals with Src kinase (h) (Homo sapiens (Human), UniProt P12931). In words: Cerep kinase profiling, HTRF assay, Src kinase. It counts as biochemical. The method, then:
as §1

Experiment [5] deals with AurA/Aur2 kinase (h) (Homo sapiens (Human), UniProt O14965). In words: Cerep kinase profiling, HTRF assay, Aurora-A kinase. The conditions noted are these: compound incubated at 10 μM; read-out: Percentage inhibition of kinase Aurora-A. The class given is biochemical. The method, then:
as §1, with “bacteria. [table]” for “bacteria.”, “transfer. Clin Chem 41, 1391-7 (1995)).” for “transfer.”

The target of experiment [6] is PDGFRα kinase (h) (Homo sapiens (Human), UniProt P16234). Briefly: Cerep kinase profiling, HTRF assay, PDGFRα kinase. The class given is biochemical. The conditions noted are these: compound incubated at 10 μM; read-out: Percentage inhibition of kinase PDGFR-α. As for the experimental part: as §1, with “bacteria. [table]” for “bacteria.”, “transfer. Clin Chem 41, 1391-7 (1995)).” for “transfer.”

In experiment [7] the test system is K562 cells expressing kinase Bcr-AbI. In words: Inhibition of cellular proliferation (MTT), K562 cells. It counts as cell-based, human. Particulars: for IC50: Homo sapiens. The method, then: Cellular tests were carried out at the Montpellier Cancer Research Centre. The inhibition of proliferation by our compounds was analysed on 2 cell lines (U937 and K562) by calculating the IC50, testing 6 concentrations in triplicate for each of the compounds and for each line.
Cells in exponential phase were seeded in 96-well plates at a concentration of 10^4 cells/100 μL/well. The final concentrations of compound in the well in contact with the cells were 0.1; 0.3; 0.9; 3.3; 10; 30; 90 μM. […]

For experiment [8], the system named is U937 cells (BCR-Abl−).
Experiment [9] relates to U937 cells (BCR-Abl−). Briefly: cells. Particulars: Homo sapiens, U-937, 72 h.
Experiment [10] addresses Abl WT (Homo sapiens (Human), UniProt P00519). In words: Reaction Biology Corp. kinase assay, Abl WT. The class given is biochemical. The conditions noted are these: Table 11; ATP at 10 μM; read-out: IC50 in nM Abl WT. As for the experimental part: (§2) 4 compounds were tested for their capacity to inhibit various mutated kinases AbI (American company, Reaction Biology Corp.).

Experiment [11] addresses Abl Y253F (Homo sapiens (Human), UniProt P00519, Y253F). In words: Reaction Biology Corp. kinase assay, mutated Abl Y253F. The class given is biochemical. Particulars: Table 11; ATP at 10 μM. As for the experimental part:
as §2

Experiment [12] deals with Abl T315I (Homo sapiens (Human), UniProt P00519, T315I). Briefly: Reaction Biology Corp. kinase assay, mutated Abl T315I. The conditions noted are these: Table 11; ATP at 10 μM; read-out: IC50 in nM Abl T315I. It counts as biochemical. The method, then: as §2
[13] abbreviates: 10 μM, compounds tested by Cerep, read-out: % inhibition of kinase activity, Abl WT (category).
[14] abbreviates: Table 6, compound incubated at 10 μM, read-out: Percentage inhibition of kinase Abl.
[15] abbreviates: Table 8, compound incubated at 10 μM, read-out: Percentage inhibition of kinase Abl.
Setting [16] is: 10 μM, compounds tested by Cerep, read-out: % inhibition of kinase activity, Src (category).
Where [17] appears, read: compound incubated at 10 μM, read-out: Percentage inhibition of kinase c-Src.
Where [18] appears, read: K562, 72 h, read-out: IC50 at 72 h on K562 (category), 72 h incubation.

The structures appear in SMILES notation. Where two headings read alike, the source gives them in different places.

Chain of Src kinase (h) (P12931 whole entry, looked up): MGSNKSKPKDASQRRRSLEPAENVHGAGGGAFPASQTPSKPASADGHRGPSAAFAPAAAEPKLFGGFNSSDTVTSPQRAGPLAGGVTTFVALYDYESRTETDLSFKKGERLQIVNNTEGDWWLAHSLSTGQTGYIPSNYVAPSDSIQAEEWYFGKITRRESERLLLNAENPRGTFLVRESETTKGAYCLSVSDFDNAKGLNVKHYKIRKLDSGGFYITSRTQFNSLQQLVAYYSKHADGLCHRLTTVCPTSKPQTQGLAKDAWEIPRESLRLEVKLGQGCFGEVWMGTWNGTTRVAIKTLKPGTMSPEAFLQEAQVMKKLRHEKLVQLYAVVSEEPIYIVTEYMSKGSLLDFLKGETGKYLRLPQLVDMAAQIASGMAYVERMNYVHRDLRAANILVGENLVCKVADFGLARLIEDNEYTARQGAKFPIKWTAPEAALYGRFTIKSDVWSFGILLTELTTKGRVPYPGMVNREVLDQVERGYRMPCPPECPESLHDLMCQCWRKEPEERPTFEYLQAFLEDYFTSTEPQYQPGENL
Chain of AurA/Aur2 kinase (h) (O14965 whole entry): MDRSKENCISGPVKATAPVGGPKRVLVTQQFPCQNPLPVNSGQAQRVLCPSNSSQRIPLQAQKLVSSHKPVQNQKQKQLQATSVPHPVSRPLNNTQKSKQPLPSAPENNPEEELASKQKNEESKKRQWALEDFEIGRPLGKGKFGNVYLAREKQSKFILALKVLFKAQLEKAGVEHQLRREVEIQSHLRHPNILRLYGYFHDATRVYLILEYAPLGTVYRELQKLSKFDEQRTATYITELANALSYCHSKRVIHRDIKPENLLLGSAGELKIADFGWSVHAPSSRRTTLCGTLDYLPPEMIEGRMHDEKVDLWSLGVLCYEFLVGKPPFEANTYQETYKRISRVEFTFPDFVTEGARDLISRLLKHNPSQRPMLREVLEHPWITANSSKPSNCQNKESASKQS
Chain of PDGFRα kinase (h) (P16234 24-1089): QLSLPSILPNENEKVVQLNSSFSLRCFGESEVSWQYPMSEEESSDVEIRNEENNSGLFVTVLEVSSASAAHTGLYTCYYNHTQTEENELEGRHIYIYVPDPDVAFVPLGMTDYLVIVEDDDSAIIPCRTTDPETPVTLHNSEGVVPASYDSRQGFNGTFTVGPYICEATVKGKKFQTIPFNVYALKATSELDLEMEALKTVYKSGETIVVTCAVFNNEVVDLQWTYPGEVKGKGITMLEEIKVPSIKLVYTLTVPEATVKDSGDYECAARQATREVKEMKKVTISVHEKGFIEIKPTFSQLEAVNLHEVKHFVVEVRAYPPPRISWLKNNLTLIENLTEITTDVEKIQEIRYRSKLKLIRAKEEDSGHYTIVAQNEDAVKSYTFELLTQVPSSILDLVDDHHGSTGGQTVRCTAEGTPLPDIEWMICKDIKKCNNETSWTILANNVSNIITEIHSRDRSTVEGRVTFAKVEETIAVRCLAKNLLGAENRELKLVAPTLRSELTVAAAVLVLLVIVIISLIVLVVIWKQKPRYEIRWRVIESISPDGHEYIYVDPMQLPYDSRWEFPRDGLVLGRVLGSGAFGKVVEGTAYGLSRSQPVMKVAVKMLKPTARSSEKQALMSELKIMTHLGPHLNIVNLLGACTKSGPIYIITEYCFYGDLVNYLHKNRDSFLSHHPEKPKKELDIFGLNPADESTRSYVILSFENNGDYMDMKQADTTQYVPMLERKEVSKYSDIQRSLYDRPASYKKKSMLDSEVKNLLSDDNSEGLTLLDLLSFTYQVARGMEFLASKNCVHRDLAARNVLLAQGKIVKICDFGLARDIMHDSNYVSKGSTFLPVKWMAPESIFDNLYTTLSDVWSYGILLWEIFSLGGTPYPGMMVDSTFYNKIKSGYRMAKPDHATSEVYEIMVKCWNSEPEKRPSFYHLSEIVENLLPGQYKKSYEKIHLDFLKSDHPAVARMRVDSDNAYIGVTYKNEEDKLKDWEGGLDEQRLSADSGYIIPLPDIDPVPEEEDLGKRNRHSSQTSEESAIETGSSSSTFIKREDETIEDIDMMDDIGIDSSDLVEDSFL
Chain of c-kit kinase (h) (P10721 26-976): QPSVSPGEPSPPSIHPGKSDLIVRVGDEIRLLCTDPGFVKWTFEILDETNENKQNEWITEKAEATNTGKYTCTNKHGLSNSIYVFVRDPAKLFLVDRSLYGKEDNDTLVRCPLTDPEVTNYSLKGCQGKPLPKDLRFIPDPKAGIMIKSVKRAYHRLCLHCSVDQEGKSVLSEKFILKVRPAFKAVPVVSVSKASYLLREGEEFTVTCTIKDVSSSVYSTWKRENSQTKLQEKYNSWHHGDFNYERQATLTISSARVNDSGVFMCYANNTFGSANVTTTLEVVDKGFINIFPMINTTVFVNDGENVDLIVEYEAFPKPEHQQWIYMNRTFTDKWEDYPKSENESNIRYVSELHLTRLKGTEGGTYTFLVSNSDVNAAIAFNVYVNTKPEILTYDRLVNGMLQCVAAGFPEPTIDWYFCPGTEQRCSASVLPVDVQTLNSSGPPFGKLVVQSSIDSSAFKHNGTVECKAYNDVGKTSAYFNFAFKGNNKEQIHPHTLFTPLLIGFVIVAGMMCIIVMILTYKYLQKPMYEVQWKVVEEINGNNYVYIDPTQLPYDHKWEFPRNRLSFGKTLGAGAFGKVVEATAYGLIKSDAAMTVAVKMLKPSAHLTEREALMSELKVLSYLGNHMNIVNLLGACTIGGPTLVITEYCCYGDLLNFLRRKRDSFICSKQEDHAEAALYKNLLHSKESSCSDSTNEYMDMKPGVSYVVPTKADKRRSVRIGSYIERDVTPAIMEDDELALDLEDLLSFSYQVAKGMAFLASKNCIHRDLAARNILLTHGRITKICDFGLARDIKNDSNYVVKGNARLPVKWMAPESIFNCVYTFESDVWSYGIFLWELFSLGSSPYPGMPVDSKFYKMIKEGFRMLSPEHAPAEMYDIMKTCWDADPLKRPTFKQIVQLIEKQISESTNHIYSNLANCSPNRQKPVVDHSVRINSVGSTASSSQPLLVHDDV

Consider `Cc1ccc(NC(=O)c2ccc(CN3CCN(C)CC3)cc2)cc1Nc1nccc(-c2cccnc2)n1` [Imatinib], for which the “Action of Imatinib on K562” value in [1] is given as “Sensitive”.
As a reminder, the inhibition is the share of the control response that was lost under treatment. As usually defined, the IC50 is the concentration needed to halve the response being measured. In the case of `CN(C)CCCNC(=O)c1cc2cc(NC(=O)c3ccccc3Br)cnc2[nH]1` [ND0009, 5-(2-bromobenzamido)-N-(3-(dimethylamino)propyl)-1H-pyrrolo[2,3-b]pyridine-2-carboxamide], the inhibition at 10 µM is over 50% in experiment [2] (setting [13]); 100% in experiment [2] (setting [14]); 100% in experiment [2] (setting [15]); 44% in [3]; over 50% in experiment [4] (setting [16]); 90% in [4] (setting [17]). Besides, the inhibition at 10 µM was determined as 5% in experiment [5] and 11% in experiment [6]. For the same compound, the IC50 in experiment [4] (Table 9, Cerep, read-out: IC50 in M c-Src) is 2.2 µM; in experiment [4] (compound tested by Cerep, read-out: IC50 on kinase Src (category)), 0.1 to 10 µM; in experiment [7] (K562, 72 h, Table 12, 72 h of treatment, MTT, read-out: IC50 (μM) K562), 6 µM; in experiment [7] (setting [18]), over 10 µM; in experiment [7] (K562, incubation time not stated (24 h and/or 72 h), read-out: IC50 for the K562 Bcr-AbI kinase (category)) it was over 10 µM; in [9] (read-out: IC50 (μM) U937, Table 12, 72 h of treatment, MTT), over 100 µM. The half-inhibitory concentration (IC50) in experiment [9] (read-out: IC50 at 72 h on U937 (category), 72 h incubation) was over 10 µM. The “activity on the Bcr-AbI+ cells (K562), in words” value in experiment [7] is “active”. In experiment [8], the “activity on the Bcr-AbI− cells (U937), in words” value is given as “not on the Bcr-AbI− cells”.
Consider `COC(=O)c1cc2cc(NC(=O)c3ccccc3Br)cnc2[nH]1` [ND0020, Methyl 5-(2-bromobenzamido)-1H-pyrrolo[2,3-b]pyridine-2-carboxylate], for which the inhibition at 10 µM in [2] (setting [13]) was over 50%; in [2] (setting [14]), 85%; in [2] (setting [15]) it was 85%; in experiment [3], 10%; in experiment [4] (setting [16]), over 50%; in [4] (setting [17]), 50%. For the same compound, the inhibition at 10 µM was 5% in [5] and 0% in experiment [6]. Also, the IC50 was 0.46 µM in experiment [2] (Table 9, Cerep, 5 concentrations 10^−10 M to 10^−4 M, read-out: IC50 in M Abl); 0.1 to 10 µM in [2] (compounds tested by Cerep, read-out: IC50 on kinase Abl WT (category)); 44.6 nM in experiment [10]; under 10 nM in [11]; over 100000 nM in experiment [12]; 1 to 10 µM in experiment [7] (K562, 24 h, 24 h incubation, read-out: IC50 at 24 h on K562 (category)). Further, the IC50 in experiment [7] (setting [18]) fell in the range of 1 to 10 µM.
